Active and inactive are the calls of the source.
How the values were obtained:
[1] = system: HeLa; experiment: ATP-based viability loss in HeLa cells – cell-based, CellTiter-Glo luminescence, cherry-pick samples, cytotoxicity control for MITF activator project, dose response (AID 540259); assay type: functional; conditions: Homo sapiens
[2] = molecular target: Cytochrome P450 2C9 (Homo sapiens, UniProt P11712)
[3] = molecular target: Cytochrome P450 2D6 (Homo sapiens, UniProt P10635);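 also: CYP2D6 member of a cytochrome P450 panel assay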
[4] = molecular target: Cytochrome P450 2C19 (Homo sapiens, UniProt P33261); experiment: Cytochrome panel assay with activity outcomes. Panel member name: p450-cyp2c19 Compounds with AC50 equal or less than 10 uM are considered active; assay type: functional; conditions: read-out: AC50
[5] = molecular target: T1, Leucine aminopeptidase (Plasmodium falciparum 3D7, UniProt Q8IL11); experiment: P. falciparum M17LAP inhibitors, primary screen, biochemical, fluorogenic H-Leu-NHMec substrate, 1536-well (AID 1619); assay type: functional
T1 sequence (Q8IL11 whole entry): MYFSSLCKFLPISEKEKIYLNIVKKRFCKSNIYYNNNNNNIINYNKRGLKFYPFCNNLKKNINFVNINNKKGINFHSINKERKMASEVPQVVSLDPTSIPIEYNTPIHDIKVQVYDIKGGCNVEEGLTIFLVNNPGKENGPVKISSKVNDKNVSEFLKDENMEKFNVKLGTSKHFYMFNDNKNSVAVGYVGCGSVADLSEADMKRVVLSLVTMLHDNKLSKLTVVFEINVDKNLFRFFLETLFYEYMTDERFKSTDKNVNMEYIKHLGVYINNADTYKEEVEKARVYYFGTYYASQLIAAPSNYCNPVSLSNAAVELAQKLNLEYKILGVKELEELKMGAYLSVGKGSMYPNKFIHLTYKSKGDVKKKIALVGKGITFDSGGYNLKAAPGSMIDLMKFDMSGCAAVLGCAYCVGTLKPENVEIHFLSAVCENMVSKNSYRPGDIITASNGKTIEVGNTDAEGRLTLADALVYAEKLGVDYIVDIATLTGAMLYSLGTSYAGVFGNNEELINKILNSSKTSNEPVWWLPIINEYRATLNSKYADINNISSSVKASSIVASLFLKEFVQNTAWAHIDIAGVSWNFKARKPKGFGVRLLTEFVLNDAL

[6] = molecular target: T2, Zinc finger protein mex-5 (Caenorhabditis elegans, UniProt Q9XUB2); experiment: potency of MEX-5 RNA-binding blockers – biochemical, C. elegans, fluorescence polarization, dose response (AID 1960)
T2 sequence (Q9XUB2 whole entry): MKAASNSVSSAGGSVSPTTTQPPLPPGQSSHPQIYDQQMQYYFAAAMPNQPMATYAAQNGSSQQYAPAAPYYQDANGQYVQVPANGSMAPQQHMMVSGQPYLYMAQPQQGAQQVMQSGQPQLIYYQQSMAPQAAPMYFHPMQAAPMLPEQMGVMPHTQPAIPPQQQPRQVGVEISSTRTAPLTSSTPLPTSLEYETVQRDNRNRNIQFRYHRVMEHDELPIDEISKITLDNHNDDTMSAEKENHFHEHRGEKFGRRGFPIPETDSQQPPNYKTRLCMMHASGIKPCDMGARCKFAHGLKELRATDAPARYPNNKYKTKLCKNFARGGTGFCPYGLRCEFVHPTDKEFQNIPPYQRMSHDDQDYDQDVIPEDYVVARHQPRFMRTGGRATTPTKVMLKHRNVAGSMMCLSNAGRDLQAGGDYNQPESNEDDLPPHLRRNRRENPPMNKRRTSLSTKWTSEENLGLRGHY

[7] = molecular target: T3, RNA-binding protein pos-1 (Caenorhabditis elegans, UniProt G5EF15); experiment: disruptors of C. elegans POS-1 RNA interaction – biochemical, fluorescence polarization, dose response (AID 1964);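 also: purified POS-1 fused to maltose binding protein made in E. coli; potency of compounds blocking POS-1 binding to fluorescent RNA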
T3 sequence (G5EF15 whole entry): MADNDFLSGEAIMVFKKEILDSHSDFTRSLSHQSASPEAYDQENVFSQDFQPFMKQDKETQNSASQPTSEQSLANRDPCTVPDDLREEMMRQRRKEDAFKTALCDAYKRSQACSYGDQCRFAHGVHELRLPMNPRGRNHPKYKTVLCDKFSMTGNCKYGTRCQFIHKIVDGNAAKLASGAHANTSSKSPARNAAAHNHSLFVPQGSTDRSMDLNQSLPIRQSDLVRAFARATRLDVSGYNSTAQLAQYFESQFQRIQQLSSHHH

[8] = molecular target: Lysine-specific demethylase 4A (Homo sapiens, UniProt O75164); experiment: inhibition of JMJD2A H3K9me3 demethylation – biochemical, DELFIA europium, cherry-picked samples, selectivity assay for GASC-1 inhibitor project, dose response (AID 488840)
[9] = molecular target: T4, Lysine-specific demethylase 4C (Homo sapiens, UniProt Q9H3R0); experiment: inhibition of JMJD2C H3K9me3 demethylation – biochemical, DELFIA europium, cherry-picked samples, dose response (AID 488835); assay type: functional
T4 sequence (Q9H3R0 whole entry): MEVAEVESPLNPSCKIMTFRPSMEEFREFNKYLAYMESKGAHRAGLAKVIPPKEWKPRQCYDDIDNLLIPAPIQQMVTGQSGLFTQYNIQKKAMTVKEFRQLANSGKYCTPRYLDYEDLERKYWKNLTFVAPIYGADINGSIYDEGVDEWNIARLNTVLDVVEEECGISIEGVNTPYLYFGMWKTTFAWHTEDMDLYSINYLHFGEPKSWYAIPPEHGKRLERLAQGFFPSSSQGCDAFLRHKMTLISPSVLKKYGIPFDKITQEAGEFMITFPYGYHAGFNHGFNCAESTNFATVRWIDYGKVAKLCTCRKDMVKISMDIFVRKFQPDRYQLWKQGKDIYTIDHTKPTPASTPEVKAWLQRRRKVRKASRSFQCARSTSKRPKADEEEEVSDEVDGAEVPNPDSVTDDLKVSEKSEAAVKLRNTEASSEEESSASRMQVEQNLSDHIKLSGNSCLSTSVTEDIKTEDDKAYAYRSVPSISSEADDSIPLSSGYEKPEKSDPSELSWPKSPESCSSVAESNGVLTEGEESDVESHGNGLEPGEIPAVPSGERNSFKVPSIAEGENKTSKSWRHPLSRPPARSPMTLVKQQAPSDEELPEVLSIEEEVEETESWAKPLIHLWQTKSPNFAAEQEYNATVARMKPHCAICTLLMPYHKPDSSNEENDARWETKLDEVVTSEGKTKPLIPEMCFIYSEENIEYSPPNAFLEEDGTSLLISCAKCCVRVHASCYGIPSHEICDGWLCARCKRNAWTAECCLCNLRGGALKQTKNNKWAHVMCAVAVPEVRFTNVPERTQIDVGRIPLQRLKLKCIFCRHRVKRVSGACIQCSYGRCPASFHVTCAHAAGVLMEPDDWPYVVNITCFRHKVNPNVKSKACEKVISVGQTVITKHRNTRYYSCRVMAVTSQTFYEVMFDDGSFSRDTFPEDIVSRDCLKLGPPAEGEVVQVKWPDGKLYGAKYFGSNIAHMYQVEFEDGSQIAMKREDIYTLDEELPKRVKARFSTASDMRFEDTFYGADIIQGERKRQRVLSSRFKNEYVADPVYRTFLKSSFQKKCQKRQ

[10] = Luminescence Cell-Based Dose Response HTS to Identify Activators of Luciferase Translation or Activity in H4 […] Cells. [Related pubchem assays: 1829 (Project Summary), 1814 (Primary HTS)]; assay type: functional
[11] = system: H4; experiment: Luminescence Cell-Based Dose Response HTS to Identify Activators of 5'UTR Stem-Loop Driven Prion Protein mRNA Translation in H4 Neuroglioblastoma Cells. [Related pubchem assays: 1829 (Project Summary), 1814 (Primary HTS)]; assay type: functional; conditions: Homo sapiens
[12] = system: HEK293; experiment: cells; conditions: Homo sapiens
[13] = system: HEK293; experiment: cells; conditions: Homo sapiens; remark: listed apart in the source

Sequence of Lysine-specific demethylase 4A (O75164 whole entry): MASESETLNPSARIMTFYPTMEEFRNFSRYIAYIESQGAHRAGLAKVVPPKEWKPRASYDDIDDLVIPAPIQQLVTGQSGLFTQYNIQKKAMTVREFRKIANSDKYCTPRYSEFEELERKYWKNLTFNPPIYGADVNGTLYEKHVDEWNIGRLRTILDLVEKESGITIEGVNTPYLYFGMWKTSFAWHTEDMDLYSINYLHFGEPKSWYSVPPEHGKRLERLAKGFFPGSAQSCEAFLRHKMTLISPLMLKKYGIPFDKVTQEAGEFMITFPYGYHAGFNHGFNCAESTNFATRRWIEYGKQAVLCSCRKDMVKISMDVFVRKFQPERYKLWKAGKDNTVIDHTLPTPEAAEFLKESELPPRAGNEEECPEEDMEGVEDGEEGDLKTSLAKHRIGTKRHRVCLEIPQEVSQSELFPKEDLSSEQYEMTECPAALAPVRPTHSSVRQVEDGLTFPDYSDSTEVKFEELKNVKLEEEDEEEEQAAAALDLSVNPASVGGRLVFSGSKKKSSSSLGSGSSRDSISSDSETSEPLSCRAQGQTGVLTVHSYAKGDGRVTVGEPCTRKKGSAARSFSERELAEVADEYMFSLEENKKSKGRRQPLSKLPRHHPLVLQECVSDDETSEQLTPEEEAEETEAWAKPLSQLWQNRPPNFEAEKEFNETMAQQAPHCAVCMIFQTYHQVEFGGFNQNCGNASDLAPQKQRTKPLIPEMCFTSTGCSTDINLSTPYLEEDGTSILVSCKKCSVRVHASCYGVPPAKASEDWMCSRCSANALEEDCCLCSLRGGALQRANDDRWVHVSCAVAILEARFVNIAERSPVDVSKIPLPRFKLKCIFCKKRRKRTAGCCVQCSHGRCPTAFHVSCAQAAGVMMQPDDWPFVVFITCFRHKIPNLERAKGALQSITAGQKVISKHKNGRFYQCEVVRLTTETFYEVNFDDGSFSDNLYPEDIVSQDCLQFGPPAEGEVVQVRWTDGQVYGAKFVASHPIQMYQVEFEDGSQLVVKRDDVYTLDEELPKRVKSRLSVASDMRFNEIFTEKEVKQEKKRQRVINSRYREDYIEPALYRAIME
Sequence of Cytochrome P450 2C19 (P33261 whole entry): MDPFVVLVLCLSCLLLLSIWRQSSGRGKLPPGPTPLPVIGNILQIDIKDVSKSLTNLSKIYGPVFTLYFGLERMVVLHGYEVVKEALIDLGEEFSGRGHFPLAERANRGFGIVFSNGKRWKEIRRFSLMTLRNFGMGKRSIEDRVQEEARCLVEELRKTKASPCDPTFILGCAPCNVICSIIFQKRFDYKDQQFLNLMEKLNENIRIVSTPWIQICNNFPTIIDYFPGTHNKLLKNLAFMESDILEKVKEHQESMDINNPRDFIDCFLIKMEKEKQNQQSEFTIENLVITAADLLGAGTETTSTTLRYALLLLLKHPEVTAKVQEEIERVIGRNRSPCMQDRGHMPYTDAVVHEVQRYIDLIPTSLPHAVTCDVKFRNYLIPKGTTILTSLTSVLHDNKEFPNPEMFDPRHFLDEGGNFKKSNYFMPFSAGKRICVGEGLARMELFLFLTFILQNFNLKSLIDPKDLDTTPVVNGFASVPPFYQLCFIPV
Sequence of Cytochrome P450 2D6 (P10635 whole entry): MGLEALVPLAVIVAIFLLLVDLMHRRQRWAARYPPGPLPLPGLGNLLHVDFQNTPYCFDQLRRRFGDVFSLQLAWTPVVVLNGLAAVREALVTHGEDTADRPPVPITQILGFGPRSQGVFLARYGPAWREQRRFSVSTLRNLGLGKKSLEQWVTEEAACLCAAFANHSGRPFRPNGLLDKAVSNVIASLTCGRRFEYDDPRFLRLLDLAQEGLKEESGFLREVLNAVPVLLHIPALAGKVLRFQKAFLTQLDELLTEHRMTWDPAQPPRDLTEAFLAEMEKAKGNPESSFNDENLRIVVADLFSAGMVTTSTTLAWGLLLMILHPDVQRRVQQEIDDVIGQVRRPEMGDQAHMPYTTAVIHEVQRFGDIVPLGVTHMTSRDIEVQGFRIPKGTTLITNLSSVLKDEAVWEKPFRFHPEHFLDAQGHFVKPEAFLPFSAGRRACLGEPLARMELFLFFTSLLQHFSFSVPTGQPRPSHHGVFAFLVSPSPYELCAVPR
Sequence of Cytochrome P450 2C9 (P11712 whole entry): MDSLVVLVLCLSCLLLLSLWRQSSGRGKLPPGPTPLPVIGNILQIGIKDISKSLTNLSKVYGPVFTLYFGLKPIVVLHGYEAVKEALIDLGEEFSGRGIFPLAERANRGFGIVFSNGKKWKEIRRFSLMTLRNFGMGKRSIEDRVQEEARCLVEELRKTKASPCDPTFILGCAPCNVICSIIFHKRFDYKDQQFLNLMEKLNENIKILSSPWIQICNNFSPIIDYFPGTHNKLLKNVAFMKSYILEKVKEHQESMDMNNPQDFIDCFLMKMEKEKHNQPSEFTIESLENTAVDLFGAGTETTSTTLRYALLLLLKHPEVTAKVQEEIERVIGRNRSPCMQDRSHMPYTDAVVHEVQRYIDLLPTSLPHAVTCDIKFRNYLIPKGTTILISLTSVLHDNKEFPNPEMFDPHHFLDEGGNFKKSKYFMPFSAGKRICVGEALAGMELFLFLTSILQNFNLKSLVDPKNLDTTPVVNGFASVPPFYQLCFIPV

O=C(CNC(=O)c1cccs1)c1ccc(Br)cc1
AC50 [1]: 59.4 µM (active)

Cc1ccc(NC(=O)c2cc(NC(=O)CCC(=O)O)ccc2N2CCCCC2)cc1
AC50 [2]: 14.1 µM (inconclusive) | AC50 [3]: inconclusive | AC50 [4]: 35.5 µM (inconclusive) | IC50 [5]: 11.8 µM (active)

Cn1c(=O)c2[nH]c(N=NNc3ccccc3F)nc2n(C)c1=O
EC50 [6]: 21.7 µM (active) | EC50 [7]: 62 µM (active) | AC50 [8]: 17.3 µM (active) | AC50 [9]: 8.83 µM (active)

Cc1ccc(Sc2cnc3ccccc3n2)cc1
AC50 [1]: 44.3 µM (active) | EC50 [10]: 3.64 µM (active) | EC50 [11]: 10.1 µM (active)

C=CCn1c(C)cc(C(=O)CN2NS(=O)(=O)c3ccccc3C2=O)c1C
EC50 [12]: > 2.21 µM (active) | EC50 [13]: > 59.6 µM (inactive)
